Experimental data as given in patent publication US20190060249A1 (priority 2017, published 2019).

Molecular target: T1, ALDH3A1 (Homo sapiens, UniProt P30838)
T1 sequence (P30838 1-453): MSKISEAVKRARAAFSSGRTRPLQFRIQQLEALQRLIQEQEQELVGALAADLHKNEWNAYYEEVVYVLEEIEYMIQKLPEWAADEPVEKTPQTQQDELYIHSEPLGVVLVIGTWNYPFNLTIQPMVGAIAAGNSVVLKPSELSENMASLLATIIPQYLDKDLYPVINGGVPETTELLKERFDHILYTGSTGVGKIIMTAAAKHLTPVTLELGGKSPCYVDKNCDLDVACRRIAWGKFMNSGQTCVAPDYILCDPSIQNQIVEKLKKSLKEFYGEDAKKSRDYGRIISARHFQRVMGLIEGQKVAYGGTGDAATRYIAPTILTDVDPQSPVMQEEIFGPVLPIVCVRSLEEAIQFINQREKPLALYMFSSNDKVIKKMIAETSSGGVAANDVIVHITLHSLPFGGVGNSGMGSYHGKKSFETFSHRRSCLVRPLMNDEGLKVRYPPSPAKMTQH
Assay: ALDH enzymatic assay (spectrophotometric), recombinant ALDH3A1
Type: biochemical
Details: 10 mM acetaldehyde, propionaldehyde, benzaldehyde, cinnamaldehyde, decanal, heptaldehyde or 200 μM 4-hydroxynonenal; 100 μM compound
Source text: To determine if ALDH3A1 activation is sufficient to protect salivary glands from radiation-induced dysfunction, a library of 135 traditional Chinese medicine extracts donated from Sun Ten Pharmaceutical Co., Taiwan, was screened using a spectroscopic enzyme activity assay and purified recombinant ALDH3A1. […] We then conducted high performance liquid chromatography (HPLC) fractionation of the extracts and nuclear magnetic resonance (NMR) characterization of the fractions. Based on the NMR fingerprint, we identified known constituents of similar fingerprints and purchased the commercially available compounds to test using the enzyme activity assay.
ALDH enzymatic assay: ALDH1A1, ALDH1A2, 2, 3A1, 3A2, 4A1, 5A1, 7A1 were measured as previously described using 5 μg/ml of recombinant protein (Chen, C. H., Cruz, L. A., and Mochly-Rosen, D. (2015) Pharmacological recruitment of aldehyde dehydrogenase 3A1 (ALDH3A1) to assist ALDH2 in acetaldehyde and ethanol metabolism in vivo. Proceedings of the National Academy of Sciences of the United States of America 112, 3074-3079). […] Assays were conducted in 50 mM NaPPi buffer (pH 7.4) in the presence of 2.5 mM NAD^+ and 10 mM substrate and measured in triplicate at 25° C. Dose response curve fits and EC50's were calculated using GraphPad Prism 7 software.
Activity measured in presence of compound concentrations from 6 nM to 400 μM.

## C=CCc1ccc2c(c1)OCO2 [Alda-89, safrole, reference compound]
  substrate specificity of increase in ALDH3A1 catalytic activity: only increase the catalytic activity of ALDH3A1 towards small aldehydes like acetaldehyde and propionaldehyde but not aromatic or long-chain aldehydes
